Test results from patent US20150368242A1, “NOVEL TETRAHYDROPYRIDOPYRIMIDINONE DERIVATIVE” (Ajinomoto Co., Inc., priority 2013, published 2015).
Where a name gives a salt, the structure may show the parent alone.

Target: T1, recombinant human MGAT2 enzyme (Homo sapiens, UniProt Q3SYC2)
T1 construct: made in house; host or cells: CHO-K1 (Jump-In CHO-K1 Kit, Life Technologies); microsomal fraction used as the enzyme solution
Assay: Test for human MGAT2 activity inhibitory action (14C-oleoyl CoA, recombinant enzyme microsomes)
Type: biochemical
Set-up: key to Potency relative to Comparative Example 1 (higher = more potent): % inhibition = {1−(C−B)/(A−B)}×100, B = 10 μM Comparative Example 1
Conditions: for IC50: Table 5, Examples 25 to 60, same method, read-out: IC50; for Potency relative to Comparative Example 1 (higher = more potent): Table 5, relative to Comparative Example 1 measured in the same run
Procedure: The human MGAT2 gene described in Am. J. Physiol. Endocrinol. Metab. 285: E927-E937, 2003 was expressed using Jump-In™ CHO-K1 Kit (Life technologies) as described in the attached manual. The cells were suspended in a buffer containing Tris-hydrochloric acid (pH 7.4) at a final concentration of 1 mM, 1 mM ethylenediaminetetraacetic acid, 1 mM dithiothreitol, 250 mM sucrose, and complete protease inhibitor cocktail (Roche applied Science), and then disrupted using a Teflon homogenizer (AS ONE Corporation), followed by centrifugation at 130 g for 10 minutes. The supernatant was further centrifuged at 100,000 g for 1 hour to obtain a pellet as microsomes containing the recombinant enzyme, and a solution obtained by suspending this pellet at a protein concentration of about 800 to 1900 μg/ml was used as an MGAT recombinant enzyme solution.
To a buffer containing 50 mM Tris-hydrochloric acid (pH 7.4), 6 mM magnesium chloride, and 2 mg/mL bovine serum albumin, a test compound was added, and the final concentration of dimethyl sulfoxide was adjusted to 0.3%. Moreover, 2-monooleoyl glycerol, oleoyl CoA, 1-^14C-oleoyl CoA (Perkin Elmer), and orlistat (SIGMA) were added at final concentrations of 50 μM, 50 μM, 2.2 μM, and 8.3 μM, respectively, followed by incubation at 37° C. for 10 minutes. After 10 minutes, the recombinant human MGAT2 enzyme solution was added at a final concentration of 0.67 μg/mL, and the reaction was started, with the amount of the reaction solution being 150 μl. The reaction was carried out at 37° C. for 30 minutes.
After 30 minutes, the reaction was stopped by adding 300 μl of isopropanol:heptane:water=(80:20:2) to the reaction liquid. Further, 200 μl of heptane and 100 μl of water were added, followed by stirring. Then, 100 μl of the upper layer was transferred to a 96-well plate (Corning), and mixed with 100 μl of liquid scintillator (LumaSafe Plus, Lumac). Then, the ^14C count was quantitatively determined using TopCount NXT™ microplate scintillation luminescence counter (Perkin Elmer).
The ^14C count in a case where no test compound was added was defined as A, the ^14C count in a case where 10 μM of the compound (Comparative Example 1) of Example No. 8 of WO2008/038768 was added was defined as B, and the ^14C count in the case where the test compound was added was taken as C. For this case, {1−(C−B)/(A−B)}×100(%) was calculated as the human MGAT2 activity inhibition ratio of the test compound (shown in the column named vs Comp. Ex. 1 in the following Table). A greater value of the “vs Comparative Example 1” means that the MGAT2 activity inhibitory action of the compound of Example was higher as compared to the MGAT2 activity inhibitory action of the compound of Comparative Example 1 (i.e., the human MGAT2 activity inhibition ratio was higher). […] Since this evaluation test was conducted for two separate groups, the test results of the two groups are shown separately in Table (First Test) and Table 4 (Second Test).
Next, the compounds of Examples 25 to 60 of the present invention were also investigated for their pharmacological action by using the same method as in Examples 1 to 24. […] Note that, a comparative evaluation test against the compound of Comparative Example 1 was conducted for each of the compounds of Examples (in every measurement of the inhibitory activity of the compounds of Examples 25 to 60, the inhibitory activity of the compound of Comparative Example 1 was measured). The 50% inhibition concentrations of Comparative Example 1 in the measurement of the inhibitory activities of the compounds of Examples 25 to 60 were shown in Table 5 as “IC50 (nM) of Comparative Example 1.”

T1 sequence (Q3SYC2 whole entry): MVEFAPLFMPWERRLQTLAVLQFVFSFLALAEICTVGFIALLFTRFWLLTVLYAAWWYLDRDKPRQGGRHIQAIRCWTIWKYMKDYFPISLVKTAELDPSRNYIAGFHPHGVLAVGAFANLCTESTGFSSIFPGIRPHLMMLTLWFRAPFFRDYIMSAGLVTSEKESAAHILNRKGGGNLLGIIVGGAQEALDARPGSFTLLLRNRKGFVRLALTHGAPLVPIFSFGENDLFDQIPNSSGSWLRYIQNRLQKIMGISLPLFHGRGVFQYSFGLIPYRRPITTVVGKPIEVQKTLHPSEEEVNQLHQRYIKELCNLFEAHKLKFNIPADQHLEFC

| Structure (SMILES) | IC50 | Potency relative to Comparative Example 1 (higher = more potent) |
| --- | --- | --- |
| CC(C)[C@H](CNCCC(=O)N1CCc2nc(SC3CCC3)n(-c3ccccc3)c(=O)c2C1)Nc1ccc(Cl)cc1 [Example 40, 6-[3-[[(2R)-2-(4-chloroanilino)-3-methyl-butyl]amino]propanoyl]-2-cyclobutylsulfanyl-3-phenyl-7,8-dihydro-5H-pyrido[4,3-d]pyrimidin-4-one trifluoroacetate] | 0.7 nM | – |
| C[C@@H](NCCC(=O)N1CCc2nc(SC3CCC3)n(-c3ccccc3)c(=O)c2C1)c1ccccc1 [Example 41, 2-cyclobutylsulfanyl-3-phenyl-6-[3-[[(1R)-1-phenylethyl]amino]propanoyl]-7,8-dihydro-5H-pyrido[4,3-d]pyrimidin-4-one trifluoroacetate] | 1.1 nM | – |
| C[C@H](NCCC(=O)N1CCc2nc(SC3CCC3)n(-c3ccccc3)c(=O)c2C1)c1ccccc1 [Example 42, 2-cyclobutylsulfanyl-3-phenyl-6-[3-[[(1S)-1-phenylethyl]amino]propanoyl]-7,8-dihydro-5H-pyrido[4,3-d]pyrimidin-4-one trifluoroacetate] | 1.2 nM | – |
| O=C(CCNC[C@H](O)c1ccc(F)cc1)N1CCc2nc(SC3CCC3)n(-c3ccccc3)c(=O)c2C1 [Example 43, 2-cyclobutylsulfanyl-6-[3-[[(2R)-2-(4-fluorophenyl)-2-hydroxy-ethyl]amino]propanoyl]-3-phenyl-7,8-dihydro-5H-pyrido[4,3-d]pyrimidin-4-one trifluoroacetate] | 2.5 nM | – |
| O=C(CCNCC(O)COc1ccc(F)cc1)N1CCc2nc(SC3CCC3)n(-c3ccccc3)c(=O)c2C1 (stereo not shown) [Example 44, trifluoroacetate] | 1.8 nM | 135 |
| O=C(CCNCC(O)COc1ccc(Cl)cc1)N1CCc2nc(SC3CCC3)n(-c3ccccc3)c(=O)c2C1 (stereo not shown) [Example 45, 6-[3-[[3-(4-chlorophenoxy)-2-hydroxy-propyl]amino]propanoyl]-2-cyclobutylsulfanyl-3-phenyl-7,8-dihydro-5H-pyrido[4,3-d]pyrimidin-4-one trifluoroacetate] | 1.3 nM | – |
| O=C(CCNCCOc1ccc(F)cc1)N1CCc2nc(SC3CCC3)n(-c3ccccc3)c(=O)c2C1 [Example 46, 2-cyclobutylsulfanyl-6-[3-[2-(4-fluorophenoxy)ethylamino]propanoyl]-3-phenyl-7,8-dihydro-5H-pyrido[4,3-d]pyrimidin-4-one trifluoroacetate] | < 1 nM | – |
| O=C(CCNCCCOc1ccc(F)cc1)N1CCc2nc(SC3CCC3)n(-c3ccccc3)c(=O)c2C1 [Example 47, 2-cyclobutylsulfanyl-6-[3-[3-(4-fluorophenoxy)propylamino]propanoyl]-3-phenyl-7,8-dihydro-5H-pyrido[4,3-d]pyrimidin-4-one trifluoroacetate] | 1.1 nM | – |
| O=C(CNCCOc1ccc(F)cc1)N1CCc2nc(SC3CCC3)n(-c3ccccc3)c(=O)c2C1 [Example 51, 2-cyclobutylsulfanyl-6-[2-[2-(4-fluorophenoxy)ethylamino]acetyl]-3-phenyl-7,8-dihydro-5H-pyrido[4,3-d]pyrimidin-4-one trifluoroacetate] | 4.2 nM | 64 |
| O=C(CNCc1ccc(Oc2cccc(C(F)(F)F)c2)cc1)N1CCc2nc(SC3CCC3)n(-c3ccccc3)c(=O)c2C1 [Example 54, 2-cyclobutylsulfanyl-3-phenyl-6-[2-[[4-[3-(trifluoromethyl)phenoxy]phenyl]methylamino]acetyl]-7,8-dihydero-5H-pyrido[4,3-d]pyrimidin-4-one trifluoroacetate] | 2.6 nM | 91 |
| O=C(CCNCc1nnc(Cc2ccc(C(F)(F)F)cc2)o1)N1CCc2nc(SC3CCC3)n(-c3ccccc3)c(=O)c2C1 [Example 56, 2-cyclobutylsulfanyl[-3-phenyl-6-[3-[5-[[4-(trifluoromethyl)phenyl]methyl]-1,3,4-oxadiazol-2-yl]methylamino]propanoyl]-7,8-dihydro-5H-pyrido[4,3-d]pyrimidin-4-one trifluoroacetate] | 5.8 nM | 35 |

Now from value to compound:

| IC50 | Potency relative to Comparative Example 1 (higher = more potent) | Structure (SMILES) |
| --- | --- | --- |
| 0.4 nM | 320 | O=C(CCNCC1CCCC(C(F)(F)F)C1)N1CCc2nc(SC3CCC3)n(-c3ccccc3)c(=O)c2C1 (stereo not shown) [Example 39, 2-cyclobutylsulfanyl-3-phenyl-6-[3-[[3-(trifluoromethyl)cyclohexyl]methylamino]propanoyl]-7,8-dihydro-5H-pyrido[4,3-d]pyrimidin-4-one trifluoroacetate] |
| < 1 nM | >184 | O=C(CCNCCCCOc1ccc(F)cc1)N1CCc2nc(SC3CCC3)n(-c3ccccc3)c(=O)c2C1 [Example 48, 2-cyclobutylsulfanyl-6-[3-[4-(4-fluorophenoxy)butylamino]propanoyl]-3-phenyl-7,8-dihydro-5H-pyrido[4,3-d]pyrimidin-4-one trifluoroacetate] |
| < 1 nM | >184 | O=C(CCNCCCCCOc1ccc(F)cc1)N1CCc2nc(SC3CCC3)n(-c3ccccc3)c(=O)c2C1 [Example 49, 2-cyclobutylsulfanyl-6-[3-[5-(4-fluorophenoxy)pentylamino]propanoyl]-3-phenyl-7,8-dihydro-5H-pyrido[4,3-d]pyrimidin-4-one trifluoroacetate] |
| 3.7 nM | 73 | O=C(CNCCCOc1ccc(F)cc1)N1CCc2nc(SC3CCC3)n(-c3ccccc3)c(=O)c2C1 [Example 50, 2-cyclobutylsulfanyl-6-[2-[3-(4-fluorophenoxy)propylamino]acetyl]-3-phenyl-7,8-dihydro-5H-pyrido[4,3-d]pyrimidin-4-one trifluoroacetate] |
| 1.7 nM | 158 | O=C(CNCCCCOc1ccc(F)cc1)N1CCc2nc(SC3CCC3)n(-c3ccccc3)c(=O)c2C1 [Example 52, 2-cyclobutylsulfanyl-6-[2-[4-(4-fluorophenoxy)butylamino]acetyl]-3-phenyl-7,8-dihydro-5H-pyrido[4,3-d]pyrimidin-4-one trifluoroacetate] |
| 2 nM | 133 | O=C(CNCCCCCOc1ccc(F)cc1)N1CCc2nc(SC3CCC3)n(-c3ccccc3)c(=O)c2C1 [Example 53, 2-cyclobutylsulfanyl-6-[2-[5-(4-fluorophenoxy)pentylamino]acetyl]-3-phenyl-7,8-dihydro-5H-pyrido[4,3-d]pyrimidin-4-one trifluoroacetate] |
| < 1 nM | >207 | O=C(CNCCCCCNc1ccc(C(F)(F)F)cc1)N1CCc2nc(SC3CCC3)n(-c3ccccc3)c(=O)c2C1 [Example 55, 2-cyclobutylsulfanyl-3-phenyl-6-[2-[5-[4-(trifluoromethyl)anilino]pentylamino]acetyl]-7,8-dihydro-5H-pyrido[4,3-d]pyrimidin-4-one trifluoroacetate] |
| 2.6 nM | 81 | O=C(CNCCCCCOC1CCCCC1)N1CCc2nc(SC3CCC3)n(-c3ccccc3)c(=O)c2C1 [Example 57, 2-cyclobutylsulfanyl-6-[2-[5-(cyclohexoxy)pentylamino]acetyl]-3-phenyl-7,8-dihydro-5H-pyrido[4,3-d]pyrimidin-4-one trifluoroacetate] |
